The values below are quoted from earlier work in US12534749B2, “Monoacylated MEL-producing microorganism” (NATIONAL INSTITUTE OF ADVANCED INDUSTRIAL SCIENCE AND …, priority 2019, dated 2026).

The conditions of the series: known value, T. Fukuoka et al., Carbohydrate Research 351 (2012) 81-86.

As for diacylated MEL-B, the CMC was 3.1 µM.
